Test results: patent US20080063628A1, “METHODS TO PROMOTE CELL DIFFERENTIATION” (priority 2006, published 2008)

How the values were obtained:
Test in all cases: Two sequential high dose trichostatin A treatments (24 h each), gene expression by RT-PCR (Example 8)
Assay type in all cases: cell-based, human
[1] = test system: late passage (P11) pancreatic-derived stromal cell line; settings: for HNF-3 beta RT-PCR detection cycle / Pdx-1 RT-PCR detection cycle / glucagon RT-PCR detection cycle: 5.0 μM
Method: (§1) Several cell lines obtained from different amniotic fluid specimens (see Example 14) and pancreas donors (see Example 13) were tested with similar results. Two lines at similar passage number but derived from different amniotic fluid specimens are shown in Table VIII-A and Table VIII-B for this example. One of these cell lines was also used in examples 2 and 4 above. In addition, this example also contains comparison data in Table VIII-C and Table VIII-D for a single pancreatic-derived stromal line grown to early and late passage number.
(§2) Amniotic fluid derived cells or pancreatic-derived stromal cells were seeded into 24-well tissue culture plates at a density of 5000/cm^2 and cultured in AMNIOMAX (Invitrogen) or DMEM with 10% FBS respectively under standard cell culture conditions until confluent. After the cells reached confluency, amniotic fluid derived cells were treated at time 0 hours with a dose of 1.25 μM trichostatin A, and pancreatic-derived stromal cells were treated with a dose of 5.0 μM trichostatin A solubilized in DMSO and medium. At time 24 hours, cell cultures underwent a complete medium change to remove all traces of trichostatin A. At time 96 hours, cell cultures were re-fed with fresh medium and received a second dose of trichostatin A at the same concentration as used previously. At time 120 hours, cell cultures again underwent a complete medium change and were cultured for an additional 24 hours or […] total incubation time.
(§3) Samples were taken daily for RT-PCR at the times indicated in Table VIII-A to D. The culture media was removed, and samples were rinsed in PBS then collected in RLT with β-mercaptoethanol (Qiagen). RNA was purified using the RNeasy Mini Kit (Qiagen) and RNA quantity and quality were determined using a spectrophotometer. cDNA was made using the iScript cDNA synthesis kit (BioRad).
(§4) Samples of 20 ng cDNA were used in each reaction to determine the expression levels of the following genes in amniotic fluid-derived cells: Gata1, HNF-3 beta, Pdx-1, insulin, and Sox17. Similarly, samples of 20 ng cDNA were used in each reaction to determine the expression level of the following genes in pancreatic-derived cells: glucagon, HNF-3 beta, insulin and Pdx-1. Real-Time PCR was performed on the Applied Biosystems 7500, and data was analyzed using the accompanying software according to the methods described in Example 15.
(§5) Real-time PCR amplifcation and quantitative analysis. Unless otherwise stated, all reagents were purchased from Applied Biosystems. Real-time PCR reactions were performed using the ABI PRISM™ 7500 Sequence Detection System. TAQMAN™ FAST UNIVERSAL PCR MASTER MIX™ (ABI, CA) was used with 20 ng of reverse transcribed RNA in a total reaction volume of 20 μl. Each cDNA sample was run in duplicate to allow correction of pipetting errors. Primers and FAM-labeled TAQMAN™ probes were used at concentrations of 200 nM. The level of expression for each target gene was normalized using the pre-developed Applied Biosystem's human glyceraldehyde-3-phosphate dehydrogenase (GAPDH) endogenous control kit. Primers and probes were designed using either ABI PRISM PRIMER EXPRESS™ software or a pre-developed ABI gene analysis kit. For each gene, either one of the primers or the probe were designed to be exon-boundary spanning. This eliminated the possibility of the primers/probe binding to any genomic DNA present. The primer and probe sets are listed as follows: Pdx-1 (Hs00426216), Insulin (Hs00355773), glucagon (Hs00174967), and FoxA2 (HNF 3-beta) (Hs00232764). The remaining primers were designed using the PRIMERS program (ABI, CA). After an initial 95° C. incubation for 20 sec, samples were cycled 40 times in two stages: a denaturation step at 95° C. for 3 sec, followed by an annealing/extension step at 60° C. for 30 sec. […]

[2] = test system: second amniotic fluid-derived cell line; settings: for Gata1 gene expression / HNF-3 beta gene expression / Insulin gene expression / Pdx-1 gene expression / sox17 gene expression: 1.25 μM 0-24 h + 96-120 h
Method: as §1, §2, §3, §4, §5

[3] = test system: amniotic fluid-derived cell line; settings: for Gata1 gene expression / HNF-3 beta gene expression / Insulin gene expression / Pdx-1 gene expression / sox17 gene expression: 1.25 μM 0-24 h + 96-120 h
Method: as §1, §2, §3, §4, §5

[4] = 5 μM 0-24 h + 96-120 h, 120 hrs
[5] = 1.25 μM, following the second treatment

CC(/C=C/C(=O)NO)=C\[C@@H](C)C(=O)c1ccc(N(C)C)cc1 [trichostatin A]
Pdx-1 gene expression ([1]; 5 μM 0-24 h + 96-120 h, 24 hrs): + (detectable at less than 35 cycles with SE greater than 0.9)
Insulin gene expression ([1]; 5 μM 0-24 h + 96-120 h, 48 hrs): + (detectable at less than 35 cycles with SE greater than 0.9)
glucagon gene expression ([1]; 5 μM 0-24 h + 96-120 h, 48 hrs): + (detectable at less than 35 cycles with SE greater than 0.9)
glucagon gene expression ([1]; 5 μM 0-24 h + 96-120 h, 72 hrs): + (detectable at less than 35 cycles with SE greater than 0.9)
glucagon gene expression ([1]; 5 μM 0-24 h + 96-120 h, 96 hrs): + (detectable at less than 35 cycles with SE greater than 0.9)
HNF-3 beta gene expression [1, 4]: + (detectable at less than 35 cycles with SE greater than 0.9)
glucagon gene expression [1, 4]: + (detectable at less than 35 cycles with SE greater than 0.9)
glucagon gene expression ([1]; 5 μM 0-24 h + 96-120 h, 144 hrs): + (detectable at less than 35 cycles with SE greater than 0.9)
HNF-3 beta RT-PCR detection cycle ([1]; after the second treatment): 36 cycles
HNF-3 beta RT-PCR detection cycle ([1]; following first treatment): 32 cycles
Pdx-1 RT-PCR detection cycle ([1]; following first treatment): 31 cycles
glucagon RT-PCR detection cycle ([1]; following first treatment): 33 cycles
glucagon RT-PCR detection cycle ([1]; following the medium change): 38 cycles
Pdx-1 RT-PCR detection cycle ([1]; following the second addition): 34 cycles
Gata1 gene expression ([2]; 24 hrs): + (detectable between 35 and 40 cycles by RT-PCR)
HNF-3 beta gene expression ([2]; 24 hrs): +++ (detectable at less than 35 cycles by RT-PCR with SE less than 0.9)
Insulin gene expression ([2]; 24 hrs): nd (not detectable at >40 cycles by RT-PCR)
Pdx-1 gene expression ([2]; 24 hrs): +++ (detectable at less than 35 cycles by RT-PCR with SE less than 0.9)
sox17 gene expression ([2]; 24 hrs): +++ (detectable at less than 35 cycles by RT-PCR with SE less than 0.9)
Gata1 gene expression ([2]; 48 hrs): nd (not detectable at >40 cycles by RT-PCR)
HNF-3 beta gene expression ([2]; 48 hrs): +++ (detectable at less than 35 cycles by RT-PCR with SE less than 0.9)
Insulin gene expression ([2]; 48 hrs): nd (not detectable at >40 cycles by RT-PCR)
Pdx-1 gene expression ([2]; 48 hrs): nd (not detectable at >40 cycles by RT-PCR)
sox17 gene expression ([2]; 48 hrs): +++ (detectable at less than 35 cycles by RT-PCR with SE less than 0.9)
Gata1 gene expression ([2]; 72 hrs): nd (not detectable at >40 cycles by RT-PCR)
HNF-3 beta gene expression ([2]; 72 hrs): +++ (detectable at less than 35 cycles by RT-PCR with SE less than 0.9)
Insulin gene expression ([2]; 72 hrs): + (detectable between 35 and 40 cycles by RT-PCR)
Pdx-1 gene expression ([2]; 72 hrs): nd (not detectable at >40 cycles by RT-PCR)
sox17 gene expression ([2]; 72 hrs): +++ (detectable at less than 35 cycles by RT-PCR with SE less than 0.9)
Gata1 gene expression ([2]; 96 hrs): nd (not detectable at >40 cycles by RT-PCR)
HNF-3 beta gene expression ([2]; 96 hrs): + (detectable between 35 and 40 cycles by RT-PCR)
Insulin gene expression ([2]; 96 hrs): + (detectable between 35 and 40 cycles by RT-PCR)
Pdx-1 gene expression ([2]; 96 hrs): nd (not detectable at >40 cycles by RT-PCR)
sox17 gene expression ([2]; 96 hrs): +++ (detectable at less than 35 cycles by RT-PCR with SE less than 0.9)
Gata1 gene expression ([2]; 120 hrs): + (detectable between 35 and 40 cycles by RT-PCR)
HNF-3 beta gene expression ([2]; 120 hrs): +++ (detectable at less than 35 cycles by RT-PCR with SE less than 0.9)
Insulin gene expression ([2]; 120 hrs): nd (not detectable at >40 cycles by RT-PCR)
Pdx-1 gene expression ([2]; 120 hrs): +++ (detectable at less than 35 cycles by RT-PCR with SE less than 0.9)
sox17 gene expression ([2]; 120 hrs): +++ (detectable at less than 35 cycles by RT-PCR with SE less than 0.9)
Gata1 gene expression ([2]; 144 hrs): nd (not detectable at >40 cycles by RT-PCR)
HNF-3 beta gene expression ([2]; 144 hrs): +++ (detectable at less than 35 cycles by RT-PCR with SE less than 0.9)
Insulin gene expression ([2]; 144 hrs): nd (not detectable at >40 cycles by RT-PCR)
Pdx-1 gene expression ([2]; 144 hrs): nd (not detectable at >40 cycles by RT-PCR)
sox17 gene expression ([2]; 144 hrs): +++ (detectable at less than 35 cycles by RT-PCR with SE less than 0.9)
Pdx-1 RT-PCR detection cycle ([2]; 1.25 μM, after the initial treatment): 33 cycles
Insulin RT-PCR detection cycle ([2]; 1.25 μM, after trichostatin A was washed away): 36 cycles
HNF-3 beta RT-PCR detection cycle [2, 5]: 32 cycles
Pdx-1 RT-PCR detection cycle [2, 5]: 32 cycles
HNF-3 beta RT-PCR detection cycle ([2]; 1.25 μM, initial treatment): 35 cycles
HNF-3 beta RT-PCR detection cycle ([2]; 1.25 μM, prior to the second addition): 38 cycles
Gata1 gene expression ([3]; 24 hrs): + (detectable between 35 and 40 cycles by RT-PCR)
HNF-3 beta gene expression ([3]; 24 hrs): +++ (detectable at less than 35 cycles by RT-PCR with SE less than 0.9)
Insulin gene expression ([3]; 24 hrs): nd (not detectable at >40 cycles by RT-PCR)
Pdx-1 gene expression ([3]; 24 hrs): +++ (detectable at less than 35 cycles by RT-PCR with SE less than 0.9)
sox17 gene expression ([3]; 24 hrs): +++ (detectable at less than 35 cycles by RT-PCR with SE less than 0.9)
Gata1 gene expression ([3]; 48 hrs): nd (not detectable at >40 cycles by RT-PCR)
HNF-3 beta gene expression ([3]; 48 hrs): +++ (detectable at less than 35 cycles by RT-PCR with SE less than 0.9)
Insulin gene expression ([3]; 48 hrs): nd (not detectable at >40 cycles by RT-PCR)
Pdx-1 gene expression ([3]; 48 hrs): nd (not detectable at >40 cycles by RT-PCR)
sox17 gene expression ([3]; 48 hrs): +++ (detectable at less than 35 cycles by RT-PCR with SE less than 0.9)
Gata1 gene expression ([3]; 72 hrs): nd (not detectable at >40 cycles by RT-PCR)
HNF-3 beta gene expression ([3]; 72 hrs): + (detectable between 35 and 40 cycles by RT-PCR)
Insulin gene expression ([3]; 72 hrs): + (detectable between 35 and 40 cycles by RT-PCR)
Pdx-1 gene expression ([3]; 72 hrs): nd (not detectable at >40 cycles by RT-PCR)
sox17 gene expression ([3]; 72 hrs): +++ (detectable at less than 35 cycles by RT-PCR with SE less than 0.9)
Gata1 gene expression ([3]; 96 hrs): nd (not detectable at >40 cycles by RT-PCR)
HNF-3 beta gene expression ([3]; 96 hrs): + (detectable between 35 and 40 cycles by RT-PCR)
Insulin gene expression ([3]; 96 hrs): + (detectable between 35 and 40 cycles by RT-PCR)
Pdx-1 gene expression ([3]; 96 hrs): nd (not detectable at >40 cycles by RT-PCR)
sox17 gene expression ([3]; 96 hrs): +++ (detectable at less than 35 cycles by RT-PCR with SE less than 0.9)
Gata1 gene expression ([3]; 120 hrs): nd (not detectable at >40 cycles by RT-PCR)
HNF-3 beta gene expression ([3]; 120 hrs): +++ (detectable at less than 35 cycles by RT-PCR with SE less than 0.9)
Insulin gene expression ([3]; 120 hrs): nd (not detectable at >40 cycles by RT-PCR)
Pdx-1 gene expression ([3]; 120 hrs): +++ (detectable at less than 35 cycles by RT-PCR with SE less than 0.9)
sox17 gene expression ([3]; 120 hrs): +++ (detectable at less than 35 cycles by RT-PCR with SE less than 0.9)
Gata1 gene expression ([3]; 144 hrs): nd (not detectable at >40 cycles by RT-PCR)
HNF-3 beta gene expression ([3]; 144 hrs): +++ (detectable at less than 35 cycles by RT-PCR with SE less than 0.9)
Insulin gene expression ([3]; 144 hrs): nd (not detectable at >40 cycles by RT-PCR)
Pdx-1 gene expression ([3]; 144 hrs): nd (not detectable at >40 cycles by RT-PCR)
sox17 gene expression ([3]; 144 hrs): +++ (detectable at less than 35 cycles by RT-PCR with SE less than 0.9)
Gata-1 RT-PCR detection cycle ([3]; 1.25 μM, following the first addition): 37 cycles
Insulin RT-PCR detection cycle ([3]; 1.25 μM, following the media change): 36 cycles
HNF-3 beta RT-PCR detection cycle ([3]; 1.25 μM, initial treatment): 32 cycles
Pdx-1 RT-PCR detection cycle ([3]; 1.25 μM, initial treatment (37 before treatment)): 32 cycles
HNF-3 beta RT-PCR detection cycle ([3]; 1.25 μM, second treatment): 32 cycles
Pdx-1 RT-PCR detection cycle ([3]; 1.25 μM, second treatment): 34 cycles
